Measured values taken from patent publication US12304890B2, “R-type pyridyloxycarboxylic acid, salt and ester derivative thereof, and preparation method therefor, and herbicidal composition and application thereof” (Qingdao Kingagroot Chemical Compound Co., Ltd., priority 2018, dated 2025).

What was measured:
Assay type in all cases: in vivo
[1] = test system: Monocotyledonous and dicotyledonous weed seeds and main crop seeds; assay: Post-emergence test experiment, other weeds and crops (Table 4, 1000 g a.i./ha); settings: 3 weeks in greenhouse, fresh weight inhibition
How it was run: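 Weed and crop seeds (wheat, corn, rice, soybean, cotton, oilseed, millet, sorghum) sown in soil pots in a greenhouse and sprayed at 2-3 leaf stage, 2 weeks after sowing. Compound in acetone/tween-80 with methyl oleate concentrate (1.5 L/ha) as synergist. Effect recorded as fresh-weight growth inhibition rate.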

Echinochloa crusgalli = assay: Post-emergence test experiment, Echinochloa crusgalli; settings: 1000 g a.i./ha, 3 weeks in greenhouse, fresh weight inhibition
Method: (§1) The above described growth inhibition rate is fresh weight inhibition rate.
(§2) Post-emergence test experiment: Monocotyledonous and dicotyledonous weed seeds and main crop seeds (i. e. wheat, corn, rice, soybean, cotton, oilseed, millet and sorghum.) were put into a plastic pot loaded with soil. Then covered with 0.5-2 cm soil, the seeds were allowed to grow in good greenhouse environment. The test plants were treated at 2-3 leaf stage 2 weeks after sowing. The test compounds of the invention were dissolved with acetone respectively, then added with tween-80, and using 1.5 liters per hectare of an emulsible concentrate of methyl oleate as a synergist, and diluted by certain amount of water to certain concentration. The solution was sprayed to the plants with a sprayer. Then the plants were cultured for 3 weeks in the greenhouse, and the experiment result of weed controlling effect was listed in tables 4-5.

Digitaria sanguinalis = assay: Post-emergence test experiment, Digitaria sanguinalis; settings: 1000 g a.i./ha, 3 weeks in greenhouse, fresh weight inhibition
Method: as §1, §2

Structure (SMILES)	Activity level (growth inhibition rate), Abutilon theophrasti Medic. [1]	Activity level (growth inhibition rate), Galium aparine [1]	Activity level (growth inhibition rate), Monochoria Vaginalis [1]	Activity level (growth inhibition rate), Echinochloa crusgalli (Echinochloa crusgalli)	Activity level (growth inhibition rate), Digitaria sanguinalis (Digitaria sanguinalis)
CC(C)CSC(=O)[C@@H](C)Oc1nc(F)c(Cl)c(N)c1Cl [Compound 2-80]	5 (Level 5: the growth inhibition rate is greater than 85%)	5 (Level 5: the growth inhibition rate is greater than 85%)	5 (Level 5: the growth inhibition rate is greater than 85%)	5 (Level 5: the growth inhibition rate is greater than 85%)	5 (Level 5: the growth inhibition rate is greater than 85%)
CCC(C)OC(=O)[C@@H](C)Oc1nc(F)c(Cl)c(N)c1Cl (some centres unmarked) [Compound 2-81]	5 (Level 5: the growth inhibition rate is greater than 85%)	5 (Level 5: the growth inhibition rate is greater than 85%)	5 (Level 5: the growth inhibition rate is greater than 85%)	5 (Level 5: the growth inhibition rate is greater than 85%)	5 (Level 5: the growth inhibition rate is greater than 85%)
CCC(C)SC(=O)[C@@H](C)Oc1nc(F)c(Cl)c(N)c1Cl (some centres unmarked) [Compound 2-82]	5 (Level 5: the growth inhibition rate is greater than 85%)	5 (Level 5: the growth inhibition rate is greater than 85%)	5 (Level 5: the growth inhibition rate is greater than 85%)	5 (Level 5: the growth inhibition rate is greater than 85%)	5 (Level 5: the growth inhibition rate is greater than 85%)
C[C@@H](Oc1nc(F)c(Cl)c(N)c1Cl)C(=O)OC(C)(C)C [Compound 2-83]	5 (Level 5: the growth inhibition rate is greater than 85%)	5 (Level 5: the growth inhibition rate is greater than 85%)	5 (Level 5: the growth inhibition rate is greater than 85%)	5 (Level 5: the growth inhibition rate is greater than 85%)	5 (Level 5: the growth inhibition rate is greater than 85%)
C[C@@H](Oc1nc(F)c(Cl)c(N)c1Cl)C(=O)SC(C)(C)C [Compound 2-84]	5 (Level 5: the growth inhibition rate is greater than 85%)	5 (Level 5: the growth inhibition rate is greater than 85%)	5 (Level 5: the growth inhibition rate is greater than 85%)	5 (Level 5: the growth inhibition rate is greater than 85%)	5 (Level 5: the growth inhibition rate is greater than 85%)
CCCCCOC(=O)[C@@H](C)Oc1nc(F)c(Cl)c(N)c1Cl [Compound 2-85]	5 (Level 5: the growth inhibition rate is greater than 85%)	5 (Level 5: the growth inhibition rate is greater than 85%)	5 (Level 5: the growth inhibition rate is greater than 85%)	5 (Level 5: the growth inhibition rate is greater than 85%)	5 (Level 5: the growth inhibition rate is greater than 85%)
CCC(C)COC(=O)[C@@H](C)Oc1nc(F)c(Cl)c(N)c1Cl (some centres unmarked) [Compound 2-87]	5 (Level 5: the growth inhibition rate is greater than 85%)	5 (Level 5: the growth inhibition rate is greater than 85%)	5 (Level 5: the growth inhibition rate is greater than 85%)	5 (Level 5: the growth inhibition rate is greater than 85%)	5 (Level 5: the growth inhibition rate is greater than 85%)
CCC(C)CSC(=O)[C@@H](C)Oc1nc(F)c(Cl)c(N)c1Cl (some centres unmarked) [Compound 2-88]	5 (Level 5: the growth inhibition rate is greater than 85%)	5 (Level 5: the growth inhibition rate is greater than 85%)	5 (Level 5: the growth inhibition rate is greater than 85%)	5 (Level 5: the growth inhibition rate is greater than 85%)	5 (Level 5: the growth inhibition rate is greater than 85%)
CC(C)CCOC(=O)[C@@H](C)Oc1nc(F)c(Cl)c(N)c1Cl [Compound 2-89]	5 (Level 5: the growth inhibition rate is greater than 85%)	5 (Level 5: the growth inhibition rate is greater than 85%)	5 (Level 5: the growth inhibition rate is greater than 85%)	5 (Level 5: the growth inhibition rate is greater than 85%)	5 (Level 5: the growth inhibition rate is greater than 85%)
CC(C)CCSC(=O)[C@@H](C)Oc1nc(F)c(Cl)c(N)c1Cl [Compound 2-90]	5 (Level 5: the growth inhibition rate is greater than 85%)	5 (Level 5: the growth inhibition rate is greater than 85%)	5 (Level 5: the growth inhibition rate is greater than 85%)	5 (Level 5: the growth inhibition rate is greater than 85%)	5 (Level 5: the growth inhibition rate is greater than 85%)
C[C@@H](Oc1nc(F)c(Cl)c(N)c1Cl)C(=O)OCC(C)(C)C [Compound 2-91]	5 (Level 5: the growth inhibition rate is greater than 85%)	5 (Level 5: the growth inhibition rate is greater than 85%)	5 (Level 5: the growth inhibition rate is greater than 85%)	5 (Level 5: the growth inhibition rate is greater than 85%)	5 (Level 5: the growth inhibition rate is greater than 85%)
C[C@@H](Oc1nc(F)c(Cl)c(N)c1Cl)C(=O)SCC(C)(C)C [Compound 2-92]	5 (Level 5: the growth inhibition rate is greater than 85%)	5 (Level 5: the growth inhibition rate is greater than 85%)	5 (Level 5: the growth inhibition rate is greater than 85%)	5 (Level 5: the growth inhibition rate is greater than 85%)	5 (Level 5: the growth inhibition rate is greater than 85%)
CCCC(C)OC(=O)[C@@H](C)Oc1nc(F)c(Cl)c(N)c1Cl (some centres unmarked) [Compound 2-93]	5 (Level 5: the growth inhibition rate is greater than 85%)	5 (Level 5: the growth inhibition rate is greater than 85%)	5 (Level 5: the growth inhibition rate is greater than 85%)	5 (Level 5: the growth inhibition rate is greater than 85%)	5 (Level 5: the growth inhibition rate is greater than 85%)
CCCC(C)SC(=O)[C@@H](C)Oc1nc(F)c(Cl)c(N)c1Cl (some centres unmarked) [Compound 2-94]	5 (Level 5: the growth inhibition rate is greater than 85%)	5 (Level 5: the growth inhibition rate is greater than 85%)	5 (Level 5: the growth inhibition rate is greater than 85%)	5 (Level 5: the growth inhibition rate is greater than 85%)	5 (Level 5: the growth inhibition rate is greater than 85%)
CC(C)C(C)OC(=O)[C@@H](C)Oc1nc(F)c(Cl)c(N)c1Cl (some centres unmarked) [Compound 2-95]	5 (Level 5: the growth inhibition rate is greater than 85%)	5 (Level 5: the growth inhibition rate is greater than 85%)	5 (Level 5: the growth inhibition rate is greater than 85%)	5 (Level 5: the growth inhibition rate is greater than 85%)	5 (Level 5: the growth inhibition rate is greater than 85%)
CC(C)C(C)SC(=O)[C@@H](C)Oc1nc(F)c(Cl)c(N)c1Cl (some centres unmarked) [Compound 2-96]	5 (Level 5: the growth inhibition rate is greater than 85%)	5 (Level 5: the growth inhibition rate is greater than 85%)	5 (Level 5: the growth inhibition rate is greater than 85%)	5 (Level 5: the growth inhibition rate is greater than 85%)	5 (Level 5: the growth inhibition rate is greater than 85%)
